{"source": "paper PMC3230568", "about": "(International Journal of Nanomedicine, 2011)", "origin": "cited, not measured here", "key": {"cancer cells [1]": {"tested_on": "cancer cells", "settings": "azurin, relative to normal cells"}, "full-length p53": {"target": "full-length p53 (Homo sapiens, UniProt P04637)", "sequence (P04637 whole entry)": "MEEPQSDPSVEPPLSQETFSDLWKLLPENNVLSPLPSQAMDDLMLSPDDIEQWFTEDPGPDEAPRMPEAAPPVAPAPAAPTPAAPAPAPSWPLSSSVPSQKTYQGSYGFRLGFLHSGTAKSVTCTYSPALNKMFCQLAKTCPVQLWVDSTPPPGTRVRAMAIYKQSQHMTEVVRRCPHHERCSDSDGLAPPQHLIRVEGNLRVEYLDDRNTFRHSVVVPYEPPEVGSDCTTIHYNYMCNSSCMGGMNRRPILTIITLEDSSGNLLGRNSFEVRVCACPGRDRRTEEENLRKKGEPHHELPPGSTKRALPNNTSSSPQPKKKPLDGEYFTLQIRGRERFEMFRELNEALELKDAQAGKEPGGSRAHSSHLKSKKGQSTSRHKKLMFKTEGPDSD", "settings": "single-molecule AFS"}, "p53": {"tested_on": "p53", "settings": "azurin"}, "NTD of p53": {"tested_on": "NTD of p53", "settings": "biological as well as computational studies"}, "cancer cells [2]": {"tested_on": "cancer cells", "settings": "azurin"}, "[3]": {"settings": "azurin"}}}
{"substance": "azurin: copper-containing, electron-transfer protein secreted by Pseudomonas aeruginosa; 128-amino acid", "values": [{"measurement": "preferential entry into cancer cells", "setting": "cancer cells [1]", "result": "preferentially enters cancer relative to normal cells"}, {"measurement": "complex formation with full-length p53", "setting": "full-length p53", "result": "a stable complex is formed"}, {"measurement": "effect on p53 level", "setting": "p53", "result": "stabilization and subsequent increase in intracellular concentration of p53"}, {"measurement": "binding to p53 NTD", "setting": "NTD of p53", "result": "binds to either the NTD of p53"}, {"measurement": "anticancer activity in vitro", "setting": "cancer cells [2]", "result": "significant anticancer activity in vitro"}, {"measurement": "anticancer activity in vivo", "setting": "[3]", "result": "significant anticancer activity"}]}
